ChEMBL document CHEMBL4507293 (2021)

Experiments:
[1] = test system: Tyrosine-protein kinase ABL1 (Homo sapiens), P00519 [E255K]; conditions: Compound concentration 100.0 nM
[2] = test system: Tyrosine-protein kinase ABL1 (Homo sapiens), P00519 [H396P]; conditions: Compound concentration 100.0 nM
[3] = test system: Tyrosine-protein kinase ABL1 (Homo sapiens), P00519 [Q252H]; conditions: Compound concentration 100.0 nM
[4] = target: NUAK family SNF1-like kinase 1 (Homo sapiens) (UniProt O60285); conditions: Compound concentration 100.0 nM
[5] = target: Serine/threonine-protein kinase B-raf (Homo sapiens) (UniProt P15056); conditions: Compound concentration 100.0 nM
[6] = target: Mitotic checkpoint serine/threonine-protein kinase BUB1 (Homo sapiens) (UniProt O43683); conditions: Compound concentration 100.0 nM
[7] = target: Macrophage colony-stimulating factor 1 receptor (Homo sapiens) (UniProt P07333); conditions: Compound concentration 100.0 nM
[8] = target: Tyrosine-protein kinase CSK (Homo sapiens) (UniProt P41240); conditions: Compound concentration 100.0 nM
[9] = target: Casein kinase I isoform delta (Homo sapiens) (UniProt P48730); conditions: Compound concentration 100.0 nM
[10] = target: Casein kinase II subunit alpha (Homo sapiens) (UniProt P68400); conditions: Compound concentration 100.0 nM
[11] = target: Mitogen-activated protein kinase 3 (Homo sapiens) (UniProt P27361); conditions: Compound concentration 100.0 nM
[12] = test system: Fibroblast growth factor receptor 3 (Homo sapiens), P22607 [G697C]; conditions: Compound concentration 100.0 nM
Sequence of Fibroblast growth factor receptor 3 (Homo sapiens), P22607 [G697C] (P22607 whole entry G697C): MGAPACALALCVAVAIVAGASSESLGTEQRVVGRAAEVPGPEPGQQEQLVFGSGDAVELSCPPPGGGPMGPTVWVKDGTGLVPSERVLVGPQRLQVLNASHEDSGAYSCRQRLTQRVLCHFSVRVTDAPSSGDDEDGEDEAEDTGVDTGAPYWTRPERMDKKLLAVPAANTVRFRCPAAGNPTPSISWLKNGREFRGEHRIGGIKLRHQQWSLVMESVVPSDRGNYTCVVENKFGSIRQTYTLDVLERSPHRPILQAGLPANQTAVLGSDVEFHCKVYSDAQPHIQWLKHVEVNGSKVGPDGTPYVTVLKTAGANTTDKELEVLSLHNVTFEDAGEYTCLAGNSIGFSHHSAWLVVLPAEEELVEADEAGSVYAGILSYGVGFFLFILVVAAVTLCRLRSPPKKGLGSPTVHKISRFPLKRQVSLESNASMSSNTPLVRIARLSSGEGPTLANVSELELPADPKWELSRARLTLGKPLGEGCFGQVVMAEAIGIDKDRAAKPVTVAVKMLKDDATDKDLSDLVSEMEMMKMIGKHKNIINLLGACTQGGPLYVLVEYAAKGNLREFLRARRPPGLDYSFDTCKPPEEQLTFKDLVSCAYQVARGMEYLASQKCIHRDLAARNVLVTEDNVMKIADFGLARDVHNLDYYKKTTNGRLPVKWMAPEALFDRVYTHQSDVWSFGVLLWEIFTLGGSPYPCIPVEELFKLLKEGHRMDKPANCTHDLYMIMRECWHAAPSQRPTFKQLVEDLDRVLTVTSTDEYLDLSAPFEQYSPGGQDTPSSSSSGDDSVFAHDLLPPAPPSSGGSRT

[13] = target: Cyclin-G-associated kinase (Homo sapiens) (UniProt O14976); conditions: Compound concentration 100.0 nM
[14] = target: Rhodopsin kinase GRK7 (Homo sapiens) (UniProt Q8WTQ7); conditions: Compound concentration 100.0 nM
[15] = target: Homeodomain-interacting protein kinase 1 (Homo sapiens) (UniProt Q86Z02); conditions: Compound concentration 100.0 nM
[16] = target: Serine/threonine-protein kinase STK11 (Homo sapiens) (UniProt Q15831); conditions: Compound concentration 100.0 nM
[17] = target: Leucine-rich repeat serine/threonine-protein kinase 2 (Homo sapiens) (UniProt Q5S007); conditions: Compound concentration 100.0 nM
[18] = target: MAP/microtubule affinity-regulating kinase 3 (Homo sapiens) (UniProt P27448); conditions: Compound concentration 100.0 nM
[19] = target: Dual specificity mitogen-activated protein kinase kinase 6 (Homo sapiens) (UniProt P52564); conditions: Compound concentration 100.0 nM
[20] = target: Tyrosine-protein kinase Mer (Homo sapiens) (UniProt Q12866); conditions: Compound concentration 100.0 nM
Sequence of Tyrosine-protein kinase Mer (Homo sapiens) (Q12866 whole entry): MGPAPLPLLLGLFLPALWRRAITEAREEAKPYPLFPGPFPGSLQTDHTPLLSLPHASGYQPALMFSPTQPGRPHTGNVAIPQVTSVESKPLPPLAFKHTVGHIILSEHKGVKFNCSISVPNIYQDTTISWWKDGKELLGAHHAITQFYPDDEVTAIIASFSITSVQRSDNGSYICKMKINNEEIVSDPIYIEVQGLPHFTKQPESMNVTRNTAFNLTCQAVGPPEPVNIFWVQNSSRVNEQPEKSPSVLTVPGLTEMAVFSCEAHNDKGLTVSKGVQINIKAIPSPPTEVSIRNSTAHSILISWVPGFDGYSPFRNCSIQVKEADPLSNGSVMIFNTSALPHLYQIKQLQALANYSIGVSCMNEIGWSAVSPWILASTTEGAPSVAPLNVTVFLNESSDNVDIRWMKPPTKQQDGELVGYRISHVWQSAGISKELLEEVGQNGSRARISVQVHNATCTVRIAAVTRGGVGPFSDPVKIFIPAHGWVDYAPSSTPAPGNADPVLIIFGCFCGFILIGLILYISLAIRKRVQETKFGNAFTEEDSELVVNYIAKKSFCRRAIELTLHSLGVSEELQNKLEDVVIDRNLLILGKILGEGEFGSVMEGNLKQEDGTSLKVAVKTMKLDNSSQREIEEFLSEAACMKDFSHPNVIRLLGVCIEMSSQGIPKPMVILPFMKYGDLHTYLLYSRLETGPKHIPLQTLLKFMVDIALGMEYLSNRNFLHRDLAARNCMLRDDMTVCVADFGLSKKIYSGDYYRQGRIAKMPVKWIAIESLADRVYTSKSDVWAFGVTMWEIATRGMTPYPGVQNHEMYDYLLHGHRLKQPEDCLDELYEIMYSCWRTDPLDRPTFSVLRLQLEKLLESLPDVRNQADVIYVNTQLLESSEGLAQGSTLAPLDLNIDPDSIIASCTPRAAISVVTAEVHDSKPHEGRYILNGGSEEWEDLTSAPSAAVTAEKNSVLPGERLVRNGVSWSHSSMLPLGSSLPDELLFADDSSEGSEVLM

[21] = target: MAP kinase-interacting serine/threonine-protein kinase 1 (Homo sapiens) (UniProt Q9BUB5); conditions: Compound concentration 100.0 nM
[22] = target: Myosin light chain kinase (Homo sapiens) (UniProt Q32MK0); conditions: Compound concentration 100.0 nM
[23] = target: Cyclin-dependent kinase 2 homolog (Plasmodium falciparum (isolate 3D7)) (UniProt P61075); conditions: Compound concentration 100.0 nM
[24] = target: Phosphorylase b kinase gamma catalytic chain, skeletal muscle/heart isoform (Homo sapiens) (UniProt Q16816); conditions: Compound concentration 100.0 nM
[25] = target: Phosphatidylinositol 4-phosphate 3-kinase C2 domain-containing subunit beta (Homo sapiens) (UniProt O00750); conditions: Compound concentration 100.0 nM
[26] = target: 1-phosphatidylinositol 3-phosphate 5-kinase (Homo sapiens) (UniProt Q9Y2I7); conditions: Compound concentration 100.0 nM
[27] = target: Serine/threonine-protein kinase PLK1 (Homo sapiens) (UniProt P53350); conditions: Compound concentration 100.0 nM
[28] = target: Serine/threonine-protein kinase D2 (Homo sapiens) (UniProt Q9BZL6); conditions: Compound concentration 100.0 nM
[29] = target: Receptor-interacting serine/threonine-protein kinase 1 (Homo sapiens) (UniProt Q13546); conditions: Compound concentration 100.0 nM
Sequence of Receptor-interacting serine/threonine-protein kinase 1 (Homo sapiens) (Q13546 whole entry): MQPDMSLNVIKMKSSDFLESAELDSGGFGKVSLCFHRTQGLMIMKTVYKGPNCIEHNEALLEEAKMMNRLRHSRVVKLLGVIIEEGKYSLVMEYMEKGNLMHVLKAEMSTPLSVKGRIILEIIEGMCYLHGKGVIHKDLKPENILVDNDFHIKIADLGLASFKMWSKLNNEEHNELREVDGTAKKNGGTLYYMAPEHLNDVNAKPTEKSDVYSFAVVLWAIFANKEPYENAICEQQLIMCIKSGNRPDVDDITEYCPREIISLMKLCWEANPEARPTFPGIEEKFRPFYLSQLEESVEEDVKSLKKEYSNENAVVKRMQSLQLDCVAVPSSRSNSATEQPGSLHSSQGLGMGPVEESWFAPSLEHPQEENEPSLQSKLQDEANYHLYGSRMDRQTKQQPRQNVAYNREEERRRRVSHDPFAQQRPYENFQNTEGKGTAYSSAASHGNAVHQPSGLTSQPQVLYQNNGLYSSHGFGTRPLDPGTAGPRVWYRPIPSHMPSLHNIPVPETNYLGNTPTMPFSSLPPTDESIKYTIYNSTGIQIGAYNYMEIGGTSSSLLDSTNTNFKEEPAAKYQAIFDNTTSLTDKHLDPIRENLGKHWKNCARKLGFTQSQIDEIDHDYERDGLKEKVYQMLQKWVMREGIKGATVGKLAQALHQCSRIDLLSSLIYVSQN

[30] = target: Serine/threonine-protein kinase SBK1 (Homo sapiens) (UniProt Q52WX2); conditions: Compound concentration 100.0 nM
[31] = target: Serine/threonine-protein kinase Sgk3 (Homo sapiens) (UniProt Q96BR1); conditions: Compound concentration 100.0 nM
[32] = target: NT-3 growth factor receptor (Homo sapiens) (UniProt Q16288); conditions: Compound concentration 100.0 nM
[33] = target: Serine/threonine-protein kinase ULK3 (Homo sapiens) (UniProt Q6PHR2); conditions: Compound concentration 100.0 nM
[34] = target: Serine/threonine-protein kinase WNK1 (Homo sapiens) (UniProt Q9H4A3); conditions: Compound concentration 100.0 nM
Sequence of Serine/threonine-protein kinase WNK1 (Homo sapiens) (Q9H4A3 whole entry, looked up): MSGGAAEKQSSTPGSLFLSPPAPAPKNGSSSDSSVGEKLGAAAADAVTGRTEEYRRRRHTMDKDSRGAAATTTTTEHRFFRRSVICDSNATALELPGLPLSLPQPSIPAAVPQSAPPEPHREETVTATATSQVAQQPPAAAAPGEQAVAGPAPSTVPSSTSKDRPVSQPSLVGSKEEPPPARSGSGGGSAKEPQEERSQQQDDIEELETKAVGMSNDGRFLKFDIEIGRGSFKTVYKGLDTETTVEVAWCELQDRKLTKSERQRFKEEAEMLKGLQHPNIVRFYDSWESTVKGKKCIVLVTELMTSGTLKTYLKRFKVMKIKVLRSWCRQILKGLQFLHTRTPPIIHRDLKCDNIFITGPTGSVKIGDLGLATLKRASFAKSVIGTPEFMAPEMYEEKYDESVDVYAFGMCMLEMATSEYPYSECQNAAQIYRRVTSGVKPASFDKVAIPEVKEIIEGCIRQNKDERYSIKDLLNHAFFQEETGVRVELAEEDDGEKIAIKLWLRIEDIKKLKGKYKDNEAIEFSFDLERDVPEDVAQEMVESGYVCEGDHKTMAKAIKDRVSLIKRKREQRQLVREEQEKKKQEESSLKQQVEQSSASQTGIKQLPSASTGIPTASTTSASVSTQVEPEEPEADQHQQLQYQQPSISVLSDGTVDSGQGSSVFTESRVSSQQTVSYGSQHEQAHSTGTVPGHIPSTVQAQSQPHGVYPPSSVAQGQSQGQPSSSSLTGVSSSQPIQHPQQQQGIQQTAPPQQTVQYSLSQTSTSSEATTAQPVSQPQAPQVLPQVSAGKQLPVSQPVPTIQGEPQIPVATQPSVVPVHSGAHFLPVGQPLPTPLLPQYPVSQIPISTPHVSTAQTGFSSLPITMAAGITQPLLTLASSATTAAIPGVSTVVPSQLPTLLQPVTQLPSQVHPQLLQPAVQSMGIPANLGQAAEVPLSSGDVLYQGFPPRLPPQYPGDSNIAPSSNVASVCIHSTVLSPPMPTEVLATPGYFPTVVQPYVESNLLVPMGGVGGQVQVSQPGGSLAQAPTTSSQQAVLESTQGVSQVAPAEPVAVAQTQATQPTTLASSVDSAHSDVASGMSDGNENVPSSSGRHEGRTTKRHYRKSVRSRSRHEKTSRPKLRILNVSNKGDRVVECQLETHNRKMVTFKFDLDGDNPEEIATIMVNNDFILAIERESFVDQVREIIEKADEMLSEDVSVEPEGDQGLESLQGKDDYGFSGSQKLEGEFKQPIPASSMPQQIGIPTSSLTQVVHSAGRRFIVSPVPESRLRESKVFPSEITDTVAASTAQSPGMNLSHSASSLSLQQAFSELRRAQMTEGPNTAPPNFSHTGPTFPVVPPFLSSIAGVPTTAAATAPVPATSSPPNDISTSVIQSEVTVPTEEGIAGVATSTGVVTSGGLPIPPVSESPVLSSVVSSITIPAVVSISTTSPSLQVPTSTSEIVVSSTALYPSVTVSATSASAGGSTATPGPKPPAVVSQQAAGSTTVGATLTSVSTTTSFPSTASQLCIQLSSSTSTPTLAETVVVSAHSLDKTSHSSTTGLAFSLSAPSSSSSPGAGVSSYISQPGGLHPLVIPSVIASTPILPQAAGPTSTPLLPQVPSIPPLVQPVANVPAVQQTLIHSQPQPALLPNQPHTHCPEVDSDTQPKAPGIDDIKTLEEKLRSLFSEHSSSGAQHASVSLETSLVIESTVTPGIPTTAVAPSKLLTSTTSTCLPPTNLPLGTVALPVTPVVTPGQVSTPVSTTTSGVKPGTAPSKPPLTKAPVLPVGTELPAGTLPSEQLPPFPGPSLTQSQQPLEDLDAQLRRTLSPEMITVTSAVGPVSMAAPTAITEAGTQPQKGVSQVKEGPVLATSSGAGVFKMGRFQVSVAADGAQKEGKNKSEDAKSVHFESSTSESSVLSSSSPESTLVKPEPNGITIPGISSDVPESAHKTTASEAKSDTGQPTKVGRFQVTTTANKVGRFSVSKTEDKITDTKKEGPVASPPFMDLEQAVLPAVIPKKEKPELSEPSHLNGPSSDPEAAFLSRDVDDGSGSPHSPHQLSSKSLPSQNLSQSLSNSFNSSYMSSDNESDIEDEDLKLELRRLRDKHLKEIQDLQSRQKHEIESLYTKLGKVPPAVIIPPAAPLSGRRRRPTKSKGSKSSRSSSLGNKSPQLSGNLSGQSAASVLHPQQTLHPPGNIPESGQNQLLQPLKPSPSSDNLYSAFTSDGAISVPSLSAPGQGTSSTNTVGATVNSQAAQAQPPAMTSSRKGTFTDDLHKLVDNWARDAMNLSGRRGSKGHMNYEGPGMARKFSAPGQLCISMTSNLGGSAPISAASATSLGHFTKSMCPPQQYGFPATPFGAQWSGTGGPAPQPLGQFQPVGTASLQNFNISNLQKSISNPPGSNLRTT

[35] = target: 5-hydroxytryptamine receptor 1B (Homo sapiens) (UniProt P28222); conditions: Compound concentration 10.0 uM
[36] = target: D(3) dopamine receptor (Homo sapiens) (UniProt P35462); conditions: Compound concentration 10.0 uM
[37] = target: Alpha-1B adrenergic receptor (Homo sapiens) (UniProt P35368); conditions: Compound concentration 10.0 uM
[38] = target: T1, Muscarinic acetylcholine receptor M2 (Homo sapiens) (UniProt P08172); conditions: Compound concentration 10.0 uM
T1 sequence (whole entry): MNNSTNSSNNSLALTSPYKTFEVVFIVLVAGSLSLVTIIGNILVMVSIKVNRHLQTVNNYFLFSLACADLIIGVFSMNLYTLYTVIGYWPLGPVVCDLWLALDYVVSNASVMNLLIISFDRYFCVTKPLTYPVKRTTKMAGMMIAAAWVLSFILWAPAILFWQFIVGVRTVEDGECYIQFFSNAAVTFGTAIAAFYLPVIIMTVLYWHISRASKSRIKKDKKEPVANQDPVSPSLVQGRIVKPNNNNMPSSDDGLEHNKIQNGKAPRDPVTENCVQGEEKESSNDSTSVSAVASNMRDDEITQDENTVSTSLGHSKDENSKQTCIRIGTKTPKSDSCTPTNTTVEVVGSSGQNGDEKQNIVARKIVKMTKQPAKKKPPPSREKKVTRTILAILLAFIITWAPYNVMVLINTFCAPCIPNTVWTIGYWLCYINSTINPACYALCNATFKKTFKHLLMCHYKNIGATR

[39] = target: Beta-3 adrenergic receptor (Homo sapiens) (UniProt P13945); conditions: Compound concentration 10.0 uM

CC(C)CC(=O)N1CCc2nc(-c3ccc(Br)cc3)nc(N(C)Cc3ccccc3)c2C1 [THPP-1-NC]
inactive: residual activity [1] 100% | residual activity [2] 100% | residual activity [3] 53% | residual activity [4] 100% | residual activity [5] 100% | residual activity [6] 78% | residual activity [7] 100% | residual activity [8] 100% | residual activity [9] 83% | residual activity [10] 100% | residual activity [11] 88% | residual activity [12] 100% | residual activity [13] 100% | residual activity [14] 74% | residual activity [15] 64% | residual activity [16] 100% | residual activity [17] 100% | residual activity [18] 100% | residual activity [19] 100% | residual activity [20] 100% | residual activity [21] 69% | residual activity [22] 98% | residual activity [23] 100% | residual activity [24] 100% | residual activity [25] 100% | residual activity [26] 91% | residual activity [27] 100% | residual activity [28] 100% | residual activity [29] 100% | residual activity [30] 100% | residual activity [31] 100% | residual activity [32] 100% | residual activity [33] 89% | residual activity [34] 100% | inhibition [35] 12.9% | inhibition [36] 5.44% | inhibition [37] 17.5% | inhibition [38] 18.2% | inhibition [39] 12.3%

COCCOc1nc(-c2ccc(Cl)nc2)nc2c1CN(C(=O)c1ncn3ccccc13)CC2 [THPP-1]
inactive: residual activity [1] 100% | residual activity [2] 100% | residual activity [3] 74% | residual activity [4] 100% | residual activity [5] 100% | residual activity [6] 82% | residual activity [7] 100% | residual activity [8] 100% | residual activity [9] 84% | residual activity [10] 99% | residual activity [11] 89% | residual activity [12] 100% | residual activity [13] 100% | residual activity [14] 91% | residual activity [15] 90% | residual activity [16] 100% | residual activity [17] 100% | residual activity [18] 100% | residual activity [19] 100% | residual activity [20] 89% | residual activity [21] 77% | residual activity [22] 83% | residual activity [23] 100% | residual activity [24] 100% | residual activity [25] 100% | residual activity [26] 90% | residual activity [27] 100% | residual activity [28] 100% | residual activity [29] 100% | residual activity [30] 100% | residual activity [31] 100% | residual activity [32] 100% | residual activity [33] 81% | residual activity [34] 100% | inhibition [35] 23.3% | inhibition [36] -6.15% | inhibition [37] 10.8% | inhibition [38] 19.3% | inhibition [39] 1.51%
